Data taken from patent publication US8822449B2, “Substituted aminoindanes and analogs thereof, and the pharmaceutical use thereof” (Sanofi, priority 2008, dated 2014).
Like-named read-outs stand apart in the source and are kept apart here.

Target: T1, sodium-proton exchanger of subtype 3 (NHE3) (Homo sapiens, UniProt P48764)
T1 construct: expressed in transfected cells
T1 sequence (P48764 26-834): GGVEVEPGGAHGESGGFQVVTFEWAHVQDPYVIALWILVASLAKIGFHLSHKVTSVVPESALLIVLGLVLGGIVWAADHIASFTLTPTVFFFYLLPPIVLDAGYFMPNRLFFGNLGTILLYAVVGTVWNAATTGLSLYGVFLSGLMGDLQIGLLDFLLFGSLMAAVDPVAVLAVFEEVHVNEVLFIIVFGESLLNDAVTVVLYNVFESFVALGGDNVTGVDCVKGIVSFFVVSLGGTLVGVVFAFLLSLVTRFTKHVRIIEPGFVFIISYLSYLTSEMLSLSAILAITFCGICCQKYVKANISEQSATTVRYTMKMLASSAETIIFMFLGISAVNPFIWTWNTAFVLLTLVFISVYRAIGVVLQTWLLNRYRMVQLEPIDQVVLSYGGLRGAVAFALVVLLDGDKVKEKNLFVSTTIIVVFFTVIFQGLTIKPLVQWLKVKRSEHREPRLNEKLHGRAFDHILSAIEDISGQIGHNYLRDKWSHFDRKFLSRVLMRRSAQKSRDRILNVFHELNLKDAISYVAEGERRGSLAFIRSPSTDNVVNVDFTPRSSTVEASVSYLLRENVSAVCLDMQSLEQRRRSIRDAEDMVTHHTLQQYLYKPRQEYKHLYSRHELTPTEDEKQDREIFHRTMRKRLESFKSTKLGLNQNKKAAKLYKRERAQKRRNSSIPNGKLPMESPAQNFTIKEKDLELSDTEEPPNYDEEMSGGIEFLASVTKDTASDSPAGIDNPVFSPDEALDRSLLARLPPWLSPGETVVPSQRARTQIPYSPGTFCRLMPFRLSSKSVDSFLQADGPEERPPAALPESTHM
Test: Recovery of intracellular pH (pHi) after acidification in LAP1 cells stably expressing NHE3 (BCECF fluorescence, FLIPR)
Assay type: cell-based
Conditions: LAP1 cells stably expressing NHE3, pH recovery after acidification, range 1 is % inhibition at 10 μM

[1] = read-out: Activity range (inhibitory effect on NHE3)

IC50 [1] [nM] | inhibition at 10 µM [1] [%] | Structure (SMILES) | other results
1000 to 10000 |  | CS(=O)(=O)c1ccc(O[C@H]2c3ccccc3C[C@@H]2N2CCNCC2)cc1 (racemic) [Example 272, 1-[rac-trans-(1,2)-1-(4-methanesulfonylphenoxy)indan-2-yl]piperazine] | 
 |  | N#Cc1ccc(O[C@H]2c3ccccc3C[C@@H]2N2CCCC2)cc1Cl (racemic) [Example 392, 2-chloro-4-(rac-trans-(1,2)-2-pyrrolidin-1-ylindan-1-yloxy)benzonitrile] | IC50 (Activity range (inhibitory effect on NHE3)): 1000 to 10000 nM
 | 20 to 50 | Fc1ccc(O[C@H]2c3ccccc3CC[C@@H]2N2CCOCC2)c2ncccc12 (racemic) [Example 586, 5-fluoro-8-(rac-trans-(1,2)-2-morpholin-4-yl-1,2,3,4-tetrahydronaphthalen-1-yloxy)quinoline] | 
1000 to 10000 |  | Cc1nc2cc(O[C@@H]3c4ccccc4C[C@H]3N3C[C@H]4CNC[C@H]4C3)ccc2s1 (racemic) [Example 576, 5-[rac-trans-(1,2)-2-(hexahydropyrrolo[3,4-c]pyrrol-2-yl)indan-1-yloxy]-2-methylbenzothiazole] | 
 | 20 to 50 | CSc1ccc(O[C@H]2c3ccccc3CC[C@@H]2N2CCC[C@H](N)C2)cc1 (racemic) [Example 183, (S)-1-[rac-trans-(1,2)-1-(4-methylsulfanylphenoxy)-1,2,3,4-tetrahydronaphthalen-2-yl]piperidin-3-ylamine] | 
< 1000 |  | CCc1ccc(O[C@@H]2c3ccccc3C[C@H]2N2C[C@H]3CNC[C@H]3C2)c(C(C)(C)C)c1 (racemic) [Example 12, 2-[rac-trans-(1,2)-1-(2-tert-butyl-4-ethylphenoxy)indan-2-yl]octahydropyrrolo[3,4-c]pyrrole] | 
< 1000 |  | CS(=O)(=O)c1ccc(O[C@H]2c3ccccc3C[C@@H]2N2CCC[C@@H](NCCC(F)(F)F)C2)cc1 [Example 220, {(R)-1-[trans-(1S,2S)-1-(4-methanesulfonylphenoxy)indan-2-yl]piperidin-3-yl}-(3,3,3-trifluoropropyl)amine] | 
 | 20 to 50 | O=[N+]([O-])c1ccc(O[C@@H]2c3ccccc3C[C@@H]2N2CCOCC2)c(Cl)c1 (racemic) [Example 478, 4-[(1R,2S)-1-(2-chloro-4-nitrophenoxy)indan-2-yl]morpholine] | 
< 1000 |  | Cc1nnc(C)n1-c1ccc(O[C@H]2c3cc(Cl)cc(Cl)c3C[C@@H]2N2CCCNCC2)cc1 [Example 347, 1-{trans-(1S,2S)-4,6-dichloro-1-[4-(3,5-dimethyl-[1,2,4]triazol-4-yl)phenoxy]indan-2-yl}-[1,4]diazepane] | 
1000 to 10000 |  | CS(=O)(=O)c1ccc(O[C@H]2c3cc(Cl)c(Cl)cc3C[C@@H]2N2CCCNCC2)cc1 (racemic) [Example 286, 1-[rac-trans-(1,2)-5,6-dichloro-1-(4-methanesulfonylphenoxy)indan-2-yl]-[1,4]diazepane] | 
1000 to 10000 |  | CN(C)Cc1cccc(O[C@@H]2c3ccccc3C[C@H]2N2CCC[C@H](N)C2)c1 (racemic) [Example 167, (S)-1-[rac-trans-(1,2)-1-(3-dimethylaminomethylphenoxy)indan-2-yl]piperidin-3-ylamine] | 
 | 20 to 50 | N[C@@H]1CCCN([C@H]2CCc3ccccc3[C@@H]2Oc2ccc3oc(=O)sc3c2)C1 (racemic) [Example 578, 5-[rac-trans-(1,2)-2-((R)-3-aminopiperidin-1-yl)-1,2,3,4-tetrahydronaphthalen-1-yloxy]benzo[1,3]oxathiol-2-one] | 
1000 to 10000 |  | CS(=O)(=O)c1ccc(O[C@H]2c3cc(Cl)cc(Cl)c3C[C@@H]2N2CCC[C@H]2CO)cc1 [Example 228, {(S)-1-[trans-(1S,2S)-4,6-dichloro-1-(4-methanesulfonylphenoxy)indan-2-yl]pyrrolidin-2-yl}methanol] | 
1000 to 10000 |  | NC(=O)c1cccc(O[C@@H]2c3ccccc3C[C@H]2N2CCC[C@H](N)C2)c1 (racemic) [Example 413, 3-[rac-trans-(1,2)-2-((S)-3-aminopiperidin-1-yl)indan-1-yloxy]benzamide] | 
 | 20 to 50 | COC(=O)c1ccc(O[C@H]2c3ccccc3CC[C@@H]2N2CCC[C@H](N)C2)c(Cl)c1 (racemic) [Example 531, 4-[rac-trans-(1,2)-2-((S)-3-aminopiperidin-1-yl)-1,2,3,4-tetrahydronaphthalen-1-yloxy]-3-chlorobenzoic acid methyl ester] | 
 | 20 to 50 | N[C@@H]1CCCN([C@H]2CCc3ccccc3[C@@H]2Oc2cnc3ccccc3c2)C1 (racemic) [Example 87, (R)-1-[rac-trans-(1,2)-1-(quinolin-3-yloxy)-1,2,3,4-tetrahydronaphthalen-2-yl]piperidin-3-ylamine] | 

IC50 [1] [nM] | inhibition at 10 µM [1] [%] | Structure (SMILES) | other results
 | 20 to 50 | N[C@@H]1CCCN([C@H]2CCc3ccccc3[C@@H]2Oc2ccccc2Br)C1 (racemic) [Example 36, (R)-1-[rac-trans-(1,2)-1-(2-bromophenoxy)-1,2,3,4-tetrahydronaphthalen-2-yl]piperidin-3-ylamine] | 
< 1000 |  | N[C@H]1CCCN([C@H]2CCc3ccccc3[C@@H]2Oc2cccc3[nH]nnc23)C1 (racemic) [Example 147, (S)-1-[rac-trans-(1,2)-1-(1H-benzotriazol-4-yloxy)-1,2,3,4-tetrahydronaphthalen-2-yl]piperidin-3-ylamine] | 
< 1000 |  | Cc1nnc(C2CC2)n1-c1ccc(O[C@H]2c3ccccc3C[C@@H]2N2CCCC2)cc1 (racemic) [Example 448, 3-Cyclopropyl-5-methyl-4-[4-(rac-trans-(1,2)-2-pyrrolidin-1-ylindan-1-yloxy)phenyl]-4H-[1,2,4]triazole] | 
 | 20 to 50 | CN(C)[C@H]1Cc2c(Cl)cc(Cl)cc2[C@@H]1Oc1ccc(-n2ccnc2)cc1 (racemic) [Example 216, [rac-trans-(1,2)-4,6-dichloro-1-(4-imidazol-1-ylphenoxy)indan-2-yl]dimethylamine] | 
1000 to 10000 |  | CS(=O)(=O)c1ccc(O[C@@H]2c3ccccc3C[C@H]2NC2CCC2)cc1 (racemic) [Example 708, Cyclobutyl-[rac-trans-(1,2)-1-(4-methanesulfonyl-phenoxy)-indan-2-yl]-amine] | 
< 1000 |  | NS(=O)(=O)c1ccc(O[C@H]2c3ccccc3C[C@@H]2N2CCCCCC2)cc1 (racemic) [Example 464, 4-(rac-trans-(1,2)-2-azepan-1-ylindan-1-yloxy)benzenesulfonamide] | 
 | 20 to 50 | NC(=O)c1cccc(O[C@H]2c3ccccc3CC[C@@H]2N2CCC[C@H](N)C2)c1 (racemic) [Example 412, 3-[rac-trans-(1,2)-2-((S)-3-aminopiperidin-1-yl)-1,2,3,4-tetrahydronaphthalen-1-yloxy]benzamide] | 
 | 20 to 50 | Cc1nnc(C)n1-c1ccc(O[C@H]2c3ccccc3C(C)(C)[C@@H]2N2CCCC2)cc1 (racemic) [Example 497, 4-[4-(rac-trans-(1,2)-3,3-dimethyl-2-pyrrolidin-1-ylindan-1-yloxy)phenyl]-3,5-dimethyl-4H-[1,2,4]triazole] | 
< 1000 |  | CS(=O)(=O)c1ccc(O[C@H]2c3cc(Cl)cc(Cl)c3C[C@@H]2N2CC[C@@H](N)C2)cc1 [Example 104, (R)-1-[trans-(1S,2S)-4,6-dichloro-1-(4-methanesulfonylphenoxy)indan-2-yl]pyrrolidin-3-ylamine] | 
 | 20 to 50 | N#Cc1cc(Br)ccc1O[C@H]1c2ccccc2CC[C@@H]1N1CCC[C@@H](N)C1 (racemic) [Example 369, 2-[rac-trans-(1,2)-2-((S)-3-aminopiperidin-1-yl)-1,2,3,4-tetrahydronaphthalen-1-yloxy]-5-bromobenzonitrile] | 
 | 20 to 50 | N[C@H]1CCCN([C@H]2CCc3ccccc3[C@@H]2Oc2ccc(Cl)cc2)C1 (racemic) [Example 175, (S)-1-[rac-trans-(1,2)-1-(4-chlorophenoxy)-1,2,3,4-tetrahydronaphthalen-2-yl]piperidin-3-ylamine] | 
1000 to 10000 |  | CS(=O)(=O)c1ccc(O[C@H]2c3cc(F)cc(Cl)c3C[C@@H]2N2CCCC2)cc1 (racemic) [Example 284, 1-[rac-trans-(1,2)-4-chloro-6-fluoro-1-(4-methanesulfonylphenoxy)indan-2-yl]pyrrolidine] | 
 | 20 to 50 | COc1cccc(F)c1O[C@H]1c2ccccc2CC[C@@H]1N1CCC[C@@H](N)C1 (racemic) [Example 44, (R)-1-[rac-trans-(1,2)-1-(2-fluoro-6-methoxyphenoxy)-1,2,3,4-tetrahydronaphthalen-2-yl]piperidin-3-ylamine] | 
1000 to 10000 |  | CCN(CC)[C@@H]1Cc2ccccc2[C@H]1Oc1ccc2sc(C)nc2c1 (racemic) [Example 625, Diethyl-[rac-trans-(1,2)-1-(2-methylbenzothiazol-5-yloxy)indan-2-yl]amine] | 
1000 to 10000 |  | N[C@H]1CCCN([C@H]2CCc3ccccc3[C@@H]2Oc2cccc3ncccc23)C1 (racemic) [Example 193, (S)-1-[rac-trans-(1,2)-1-(quinolin-5-yloxy)-1,2,3,4-tetrahydronaphthalen-2-yl]piperidin-3-ylamine] | 
